The NIST ThermoML archive (doi:10.1007/s10765-005-5570-x)

Assay: xn = mol fraction of the nth substance listed
Settings: Liquid

BrCBr [dibromomethane] + CCOC(C)=O
Settings | mass density [kg/m3]
288.15 K, 101.33 kPa, x1 = 0.0522 | 966.58
288.15 K, 101.33 kPa, x1 = 0.2014 | 1147.77
288.15 K, 101.33 kPa, x1 = 0.3006 | 1277.79
288.15 K, 101.33 kPa, x1 = 0.4028 | 1419.89
288.15 K, 101.33 kPa, x1 = 0.4852 | 1542.09
288.15 K, 101.33 kPa, x1 = 0.6012 | 1725.96
288.15 K, 101.33 kPa, x1 = 0.7001 | 1895.61
288.15 K, 101.33 kPa, x1 = 0.8077 | 2095.3
288.15 K, 101.33 kPa, x1 = 0.8997 | 2281.45
288.15 K, 101.33 kPa, x1 = 1 | 2501.88
298.15 K, 101.33 kPa, x1 = 0.0522 | 954.36
298.15 K, 101.33 kPa, x1 = 0.2014 | 1133.83
298.15 K, 101.33 kPa, x1 = 0.3006 | 1262.61
298.15 K, 101.33 kPa, x1 = 0.4028 | 1404.06
298.15 K, 101.33 kPa, x1 = 0.4852 | 1525
298.15 K, 101.33 kPa, x1 = 0.6012 | 1707.9
298.15 K, 101.33 kPa, x1 = 0.7001 | 1876.1
298.15 K, 101.33 kPa, x1 = 0.8077 | 2074.59
298.15 K, 101.33 kPa, x1 = 0.8997 | 2259.57
298.15 K, 101.33 kPa, x1 = 1 | 2478.37
298.15 K, 200 kPa, x1 = 0.2995 | 1260.2
298.15 K, 200 kPa, x1 = 0.5013 | 1549.45
298.15 K, 200 kPa, x1 = 0.6994 | 1874.05
298.15 K, 500 kPa, x1 = 0.2995 | 1260.63
298.15 K, 600 kPa, x1 = 0.5013 | 1550.03
298.15 K, 600 kPa, x1 = 0.6994 | 1874.73
298.15 K, 1100 kPa, x1 = 0.2995 | 1261.34
298.15 K, 1100 kPa, x1 = 0.5013 | 1550.84
298.15 K, 1200 kPa, x1 = 0.6994 | 1875.51
298.15 K, 1900 kPa, x1 = 0.5013 | 1551.83
298.15 K, 2100 kPa, x1 = 0.2995 | 1262.47
298.15 K, 2200 kPa, x1 = 0.6994 | 1876.85
298.15 K, 2900 kPa, x1 = 0.2995 | 1263.67
298.15 K, 2900 kPa, x1 = 0.5013 | 1553.29
298.15 K, 2900 kPa, x1 = 0.6994 | 1878.02
298.15 K, 3700 kPa, x1 = 0.2995 | 1264.58
298.15 K, 3900 kPa, x1 = 0.5013 | 1554.65
298.15 K, 4200 kPa, x1 = 0.6994 | 1879.75
298.15 K, 4700 kPa, x1 = 0.5013 | 1555.68
298.15 K, 4800 kPa, x1 = 0.2995 | 1265.79
298.15 K, 5200 kPa, x1 = 0.6994 | 1881.21
298.15 K, 5900 kPa, x1 = 0.2995 | 1267.24
298.15 K, 6000 kPa, x1 = 0.5013 | 1557.43
298.15 K, 6000 kPa, x1 = 0.6994 | 1882.25
298.15 K, 6700 kPa, x1 = 0.5013 | 1558.4
298.15 K, 6800 kPa, x1 = 0.2995 | 1268.29
298.15 K, 7000 kPa, x1 = 0.6994 | 1883.78
298.15 K, 7900 kPa, x1 = 0.5013 | 1560
298.15 K, 8000 kPa, x1 = 0.2995 | 1269.58
298.15 K, 8100 kPa, x1 = 0.6994 | 1885.33
298.15 K, 8600 kPa, x1 = 0.5013 | 1561.02
298.15 K, 8900 kPa, x1 = 0.2995 | 1270.84
298.15 K, 9100 kPa, x1 = 0.6994 | 1887
298.15 K, 9800 kPa, x1 = 0.2995 | 1271.89
298.15 K, 10000 kPa, x1 = 0.5013 | 1562.92
298.15 K, 10000 kPa, x1 = 0.6994 | 1888.23
298.15 K, 10400 kPa, x1 = 0.6994 | 1888.73
298.15 K, 12000 kPa, x1 = 0.5013 | 1565.67
298.15 K, 12100 kPa, x1 = 0.2995 | 1274.55
298.15 K, 12300 kPa, x1 = 0.6994 | 1891.62
298.15 K, 13800 kPa, x1 = 0.5013 | 1568.24
298.15 K, 14000 kPa, x1 = 0.2995 | 1276.89
298.15 K, 14000 kPa, x1 = 0.6994 | 1894.37
298.15 K, 15800 kPa, x1 = 0.2995 | 1278.96
298.15 K, 15800 kPa, x1 = 0.5013 | 1570.87
298.15 K, 15900 kPa, x1 = 0.6994 | 1897.08
298.15 K, 17600 kPa, x1 = 0.5013 | 1573.34
298.15 K, 17800 kPa, x1 = 0.6994 | 1900.02
298.15 K, 17900 kPa, x1 = 0.2995 | 1281.5
298.15 K, 19800 kPa, x1 = 0.5013 | 1576.4
298.15 K, 19800 kPa, x1 = 0.6994 | 1903.09
298.15 K, 20100 kPa, x1 = 0.2995 | 1284.19
308.15 K, 101.33 kPa, x1 = 0.0522 | 940.97
308.15 K, 101.33 kPa, x1 = 0.2014 | 1118.5
308.15 K, 101.33 kPa, x1 = 0.3006 | 1245.98
308.15 K, 101.33 kPa, x1 = 0.4028 | 1385.7
308.15 K, 101.33 kPa, x1 = 0.4852 | 1505.67
308.15 K, 101.33 kPa, x1 = 0.6012 | 1686.98
308.15 K, 101.33 kPa, x1 = 0.7001 | 1854.24
308.15 K, 101.33 kPa, x1 = 0.8077 | 2050.67
308.15 K, 101.33 kPa, x1 = 0.8997 | 2234.29
308.15 K, 101.33 kPa, x1 = 1 | 2451.74
